Results on 19 substances are retold here after patent US7803930B2, “Antisense modulation of apolipoprotein B-expression” (Isis Pharmaceuticals, Inc., priority 2002, dated 2010).

In the oligonucleotide strings, read from the 5' end, every base follows the letter of its sugar. An asterisk marks phosphorothioate; unmarked linkages are phosphodiester. Other units and linkages are bracketed, terminal groups are in braces. A string of capitals states the bases alone. e = 2'-O-(2-methoxyethyl) (MOE); [5mC] = 5-methylcytosine; d = 2'-deoxy (DNA)

The subject of this data set is mouse apolipoprotein B mRNA. The data set can be described thus: Inhibition of mouse apolipoprotein B mRNA levels in primary mouse hepatocytes, real-time PCR. To be noted: Table 3, 150 nM, averages from two experiments. The data set is classed as cell-based. How it is done: Primary mouse hepatocytes were prepared from CD-1 mice purchased from Charles River Labs (Wilmington, Mass.) and were routinely cultured in Hepatoyte Attachment Media (Gibco) supplemented with 10% Fetal Bovine Serum (Gibco/Life Technologies, Gaithersburg, Md.), 250 nM dexamethasone (Sigma), and 10 nM bovine insulin (Sigma). Cells were seeded into 96-well plates (Falcon-Primaria #3872) at a density of 10000 cells/well for use in RT-PCR analysis.
When cells reached 80% confluency, they were treated with oligonucleotide. For cells grown in 96-well plates, wells were washed once with 200 μL OPTI-MEM™-1 reduced-serum medium (Gibco BRL) and then treated with 130 μL of OPTI-MEM™-1 containing 3.75 μg/mL LIPOFECTIN™ (Gibco BRL) and the desired concentration of oligonucleotide. After 4-7 hours of treatment, the medium was replaced with fresh medium. Cells were harvested 16-24 hours after oligonucleotide treatment.
Quantitation of apolipoprotein B mRNA levels was determined by real-time quantitative PCR using the ABI PRISM™ 7700 Sequence Detection System (PE-Applied Biosystems, Foster City, Calif.) according to manufacturer's instructions. This is a closed-tube, non-gel-based, fluorescence detection system which allows high-throughput quantitation of polymerase chain reaction (PCR) products in real-time. As opposed to standard PCR, in which amplification products are quantitated after the PCR is completed, products in real-time quantitative PCR are quantitated as they accumulate. This is accomplished by including in the PCR reaction an oligonucleotide probe that anneals specifically between the forward and reverse PCR primers, and contains two fluorescent dyes. A reporter dye (e.g., JOE, FAM, or VIC, obtained from either Operon Technologies Inc., Alameda, Calif. or PE-Applied Biosystems, Foster City, Calif.) is attached to the 5′ end of the probe and a quencher dye (e.g., TAMRA, obtained from either Operon Technologies Inc., Alameda, Calif. or PE-Applied Biosystems, Foster City, Calif.) is attached to the 3′ end of the probe. When the probe and dyes are intact, reporter dye emission is quenched by the proximity of the 3′ quencher dye. During amplification, annealing of the probe to the target sequence creates a substrate that can be cleaved by the 5′-exonuclease activity of Taq polymerase. […] With each cycle, additional reporter dye molecules are cleaved from their respective probes, and the fluorescence intensity is monitored at regular intervals by laser optics built into the ABI PRISM™ 7700 Sequence Detection System. In each assay, a series of parallel reactions containing serial dilutions of mRNA from untreated control samples generates a standard curve that is used to quantitate the percent inhibition after antisense oligonucleotide treatment of test samples.
Probes and primers to mouse apolipoprotein B were designed to hybridize to a mouse apolipoprotein B sequence, using published sequence information (GenBank accession number M35186, incorporated herein as SEQ ID NO: 10). For mouse apolipoprotein B the PCR primers were: forward primer: CGTGGGCTCCAGCATTCTA (SEQ ID NO: 11) reverse primer: […] (SEQ ID NO: 12) and the PCR probe was: FAM-[…]-TAMRA SEQ ID NO: 13) where FAM (PE-Applied Biosystems, Foster City, Calif.) is the fluorescent reporter dye) and TAMRA (PE-Applied Biosystems, Foster City, Calif.) is the quencher dye. For mouse GAPDH the PCR primers were: forward primer: […] (SEQ ID NO: 14) reverse primer: […] (SEQ ID NO:15) and the PCR probe was: 5′ JOE-[…]-TAMRA 3′ (SEQ ID NO: 16) where JOE (PE-Applied Biosystems, Foster City, Calif.) is the fluorescent reporter dye) and TAMRA (PE-Applied Biosystems, Foster City, Calif.) is the quencher dye.
In accordance with the present invention, a series of oligonucleotides was designed to target different regions of the mouse apolipoprotein B RNA, using published sequence (GenBank accession number M35186, incorporated herein as SEQ ID NO: 10). […]
On the technique in general: In qPCR the cycle at which signal appears reflects the starting amount.
On to “147481 (eT*eG*eA*e[5mC]*eT*dG*dT*d[5mC]*dA*dA*dG*dG*dG*dT*dG*eA*eG*e[5mC]*eT*eG; antisense) [compound 147481]”, for which the “% INHIB” value stood at 24%.

In the case of “147499 (e[5mC]*eT*eG*e[5mC]*eA*dG*dG*dG*d[5mC]*dG*dT*d[5mC]*dA*dG*dT*eG*eA*e[5mC]*eA*eA; antisense) [compound 147499]”, the “% INHIB” value is 29%.

With “147767 (e[5mC]*eG*eT*e[5mC]*e[5mC]*dT*dT*dG*dA*dG*d[5mC]*dA*dG*dT*dG*e[5mC]*e[5mC]*e[5mC]*eG*eA; antisense) [compound 147767]”, the “% INHIB” value amounted to 5%.

Turning to “147475 (eA*eT*eT*eG*eT*dA*dT*dG*dT*dG*dA*dG*dA*dG*dG*eT*eG*eA*eG*eG; antisense) [compound 147475]”, the “% INHIB” value stood at 79%.

On to “147489 (e[5mC]*e[5mC]*eT*eA*eT*dA*d[5mC]*dT*dG*dG*d[5mC]*dT*dT*d[5mC]*dT*eA*eT*eG*eT*eT; antisense) [compound 147489]”, for which the “% INHIB” value stood at 5%.

For “147501 (e[5mC]*eT*eT*eG*eG*dT*dT*dA*dA*dA*d[5mC]*dT*dA*dA*dT*eG*eG*eT*eG*e[5mC]; antisense) [compound 147501]”, the “% INHIB” value was found to be 18%.

For “147505 (eG*eG*eA*eA*eG*dT*dG*dA*dG*dA*d[5mC]*dT*dT*dT*d[5mC]*eT*eA*eA*eG*e[5mC]; antisense) [compound 147505]”, the “% INHIB” value was 76%.

Regarding “147493 (eG*e[5mC]*eT*eT*e[5mC]*dA*dT*dT*dA*dT*dA*dG*dG*dA*dG*eG*eT*eG*eG*eT; antisense) [compound 147493]”, the “% INHIB” value was determined as 41%.

In the case of “147487 (eT*eT*e[5mC]*e[5mC]*e[5mC]*dA*dG*dT*d[5mC]*dA*dG*d[5mC]*dT*dT*dT*eA*eG*eT*eG*eG; antisense) [compound 147487]”, the “% INHIB” value was found to be 73%.

Regarding “147506 (eA*eG*eG*eA*eA*dG*dG*dA*dA*d[5mC]*dT*d[5mC]*dT*dT*dG*eA*eT*eA*eT*eT; antisense) [compound 147506]”, the “% INHIB” value is on record as 58%.

Regarding “147762 (eA*eT*eG*e[5mC]*eT*d[5mC]*d[5mC]*dA*dT*dT*d[5mC]*dT*d[5mC]*dA*d[5mC]*eA*eT*eG*e[5mC]*eT; antisense) [compound 147762]”, the “% INHIB” value worked out at 46%.

Take “147772 (antisense eG*eT*eT*eA*eT*dA*dA*dA*dG*dT*d[5mC]*d[5mC]*dA*dG*d[5mC]*eA*eT*eT*eG*eG) [compound 147772]”: the “% INHIB” value is 78%.

On to “147766 (eG*eG*eA*eG*e[5mC]*d[5mC]*d[5mC]*dA*d[5mC]*dG*dT*dG*d[5mC]*dT*dG*eA*eG*eA*eT*eT; antisense) [compound 147766]”, for which the “% INHIB” value was 59%.

As to “147482 (eG*eT*e[5mC]*e[5mC]*eA*dG*d[5mC]*d[5mC]*dT*dA*dG*dG*dA*dA*d[5mC]*eA*e[5mC]*eT*e[5mC]*eA; antisense) [compound 147482]”, the “% INHIB” value was 59%.

“147503 (eA*eA*eT*eG*eG*dA*dT*dG*dA*dT*dG*dA*dA*dA*d[5mC]*eA*eG*eT*eG*eG; antisense) [compound 147503]”: the “% INHIB” value is given as 26%.

Regarding “147495 (eG*eT*eT*eA*eG*dG*dA*d[5mC]*d[5mC]*dA*dG*dG*dG*dA*dT*eT*eG*eT*eG*eA; antisense) [compound 147495]”, the “% INHIB” value was 0%.

“147491 (eG*eA*eG*eA*eA*dA*dT*d[5mC]*d[5mC]*dT*dT*d[5mC]*dA*dG*dT*eA*eA*eG*eG*eG; antisense) [compound 147491]”: the “% INHIB” value was found to be 71%.

On to “147488 (eA*eG*e[5mC]*eT*eT*dG*d[5mC]*dT*dT*dG*dT*dT*dG*dG*dG*e[5mC]*eA*e[5mC]*eG*eG; antisense) [compound 147488]”, for which the “% INHIB” value came out at 72%.

For “147478 (eT*e[5mC]*e[5mC]*eA*eG*dG*dA*dA*dT*dT*dG*dA*dG*d[5mC]*dT*eT*eG*eT*eG*e[5mC]; antisense) [compound 147478]”, the “% INHIB” value was found to be 78%.
